Assay results reported in patent publication US20180339043A1, “MODIFIED ANTIBODIES” (Janux Therapeutics, Inc., priority 2017, published 2018).
Like-named read-outs stand apart in the source and are kept apart here. Bridge positions count the residues as written; N and C are the ends. Peptide text beside a SMILES is read from it.

How the values were obtained:
PD-L1 antibody = assay: Peptide antibody dissociation ELISA (PD-L1 antibody); assay type: binding; settings: for pH 5.4: pH 7.2 EC 50 ratio: pH 5.4 vs pH 7.2; for pH 6.0: pH 7.2 EC 50 ratio: pH 6.0 vs pH 7.2
Method: (§1) To begin, peptides were immobilized on neutravidin coated and blocked wells. […] After binding at 4 degrees the plates were washed extensively as before. Next the peptides were incubated with either neutral or acidic pH buffers for approximately 30 minutes and then washed again. The specifically peptide bound antibodies were detected by either anti-mouse Fc or anti-mouse kappa chain HRP conjugated antibodies using standard TMB-based chromogenic ELISA procedures. The effects of pH upon affinity were determined by standard EC50 analysis of each of the distinct pH dilution series binding curves and comparison of their respective EC50 values.

[1] = test system: anti-mouse CTLA-4 antibody (clone 9D9); assay: Peptide antibody dissociation ELISA (CTLA-4 antibody); assay type: binding; settings: for pH responsiveness: FIG. 11A-11C legend, unoptimized peptide candidates
Method: as §1

[2] = pH 5.4, read-out: EC50 [M] pH 5.4
[3] = pH 6.0, read-out: EC50 [M] pH 6.0
[4] = pH 7.2, read-out: EC50 [M] pH 7.2

Molecule	EC50 (PD-L1 antibody; [2])	pH 5.4: pH 7.2 EC 50 ratio (PD-L1 antibody)	EC50 (PD-L1 antibody; [3])	pH 6.0: pH 7.2 EC 50 ratio (PD-L1 antibody)	EC50 (PD-L1 antibody; [4])	EC50 [M] pH 7.2 ([1]; pH 7.2)	EC50 [M] pH 7.2 (PD-L1 antibody; pH 7.2)	pH responsiveness [1]
CC[C@H](C)[C@H](NC(=O)[C@H](Cc1c[nH]cn1)NC(=O)[C@H](Cc1ccc(O)cc1)NC(=O)[C@@H](NC(=O)[C@H](CO)NC(=O)[C@@H]1CCCN1C(=O)[C@H](Cc1ccc(O)cc1)NC(=O)[C@H](Cc1ccccc1)NC(=O)[C@H](CC(C)C)NC(=O)[C@@H](N)CCC(N)=O)[C@@H](C)O)C(=O)N[C@H](C(=O)N[C@@H](CC(=O)O)C(=O)O)[C@@H](C)CC [Peptide 20] (H-QLFYPSTYHIID-OH)	8.4e-10 M	6.7	2.1e-10 M	1.7	1.3e-10 M			
CC(C)C[C@@H]1NC(=O)CNC(=O)[C@H](CO)NC(=O)[C@H](CCCCN)NC(=O)[C@H](CC(N)=O)NC(=O)[C@H](Cc2c[nH]cn2)NC(=O)[C@@H](NC(=O)CNC(=O)CN)CSSC[C@@H](C(=O)O)NC(=O)[C@H](Cc2ccc(O)cc2)NC(=O)[C@H](Cc2c[nH]cn2)NC(=O)[C@H](Cc2ccc(O)cc2)NC(=O)[C@H](Cc2ccccc2)NC1=O [Peptide 24] (H-GGCHNKSGLFYHYC-OH; disulfide 3-14)	1.3e-09 M	6.6	5.6e-10 M	2.8	2e-10 M			
CC(C)C[C@H](NC(=O)[C@H](CCC(=O)O)NC(=O)[C@H](CCC(=O)O)NC(=O)[C@H](Cc1ccc(O)cc1)NC(=O)[C@H](Cc1ccccc1)NC(=O)[C@H](Cc1ccc(O)cc1)NC(=O)[C@H](CC(C)C)NC(=O)[C@@H]1CCCN1C(=O)[C@H](CO)NC(=O)[C@@H](NC(=O)[C@@H](N)CCC(N)=O)C(C)C)C(=O)N[C@@H](C)C(=O)O [Peptide 27]			9e-10 M					
GGADCLLHDWDSACQI [Peptide 10, control in the PD-L1 antibody test]							Inactive	significant pH responsiveness
GGCFEEHEQLVFQTHC [Peptide 5]								significant pH responsiveness
GGCILPGQHESQAIAC [Peptide 6]								significant pH responsiveness

Continued, in another order:

EC50 (PD-L1 antibody; [2])	pH 5.4: pH 7.2 EC 50 ratio (PD-L1 antibody)	EC50 (PD-L1 antibody; [3])	pH 6.0: pH 7.2 EC 50 ratio (PD-L1 antibody)	EC50 (PD-L1 antibody; [4])	EC50 [M] pH 7.2 ([1]; pH 7.2)	EC50 [M] pH 7.2 (PD-L1 antibody; pH 7.2)	Molecule	pH responsiveness [1]
3.5e-10 M	7.8	7e-11 M	1.5	4.5e-11 M			CSCC[C@H](NC(=O)CNC(=O)CN)C(=O)N[C@H]1CSSC[C@@H](C(=O)N[C@@H](CCC(N)=O)C(=O)O)NC(=O)[C@H](Cc2c[nH]c3ccccc23)NC(=O)[C@H](CC(N)=O)NC(=O)[C@H](CC(C)C)NC(=O)[C@H](CC(N)=O)NC(=O)[C@H](CO)NC(=O)[C@H](Cc2ccc(O)cc2)NC(=O)[C@H](Cc2ccccc2)NC(=O)[C@H](CC(C)C)NC(=O)[C@H](CCC(=O)O)NC(=O)[C@H](Cc2c[nH]cn2)NC1=O [Peptide 22] (H-GGMCHELFYSNLNWCQ-OH; disulfide 4-15)	
3.9e-09 M	12.9	1.3e-09 M	4.3	3e-10 M	Inactive		CSCC[C@@H]1NC(=O)[C@H](CC(=O)O)NC(=O)[C@H](C(C)C)NC(=O)[C@@H](NC(=O)[C@H](Cc2c[nH]cn2)NC(=O)CNC(=O)CN)CSSC[C@@H](C(=O)N[C@@H](CCC(N)=O)C(=O)O)NC(=O)[C@H]([C@@H](C)O)NC(=O)[C@H](CCC(N)=O)NC(=O)[C@H](CCC(N)=O)NC(=O)[C@H](Cc2ccc(O)cc2)NC(=O)[C@H](Cc2ccccc2)NC(=O)[C@H](CC(=O)O)NC(=O)[C@H](C(C)C)NC1=O [Peptide 23] (H-GGHCVDMVDFYQQTCQ-OH; disulfide 4-15)	
1.5e-09 M	6.5	4.9e-10 M	2.1	2.3e-10 M			CC[C@H](C)[C@@H]1NC(=O)[C@H](CC(=O)O)NC(=O)[C@H](C(C)C)NC(=O)[C@H](CCC(N)=O)NC(=O)[C@@H]2CCCN2C(=O)[C@H](CCC(=O)O)NC(=O)[C@H](Cc2ccc(O)cc2)NC(=O)[C@H](Cc2ccccc2)NC(=O)[C@H]([C@@H](C)O)NC(=O)[C@H](CO)NC(=O)[C@@H](NC(=O)[C@H](CC(C)C)NC(=O)CNC(=O)CN)CSSC[C@@H](C(=O)N[C@@H](Cc2ccc(O)cc2)C(=O)O)NC1=O [Peptide 29] (H-GGLCSTFYEPQVDICY-OH; disulfide 4-15)	
1.5e-09 M		3.6e-10 M					CC(C)[C@@H]1NC(=O)[C@@H](NC(=O)CNC(=O)CN)CSSC[C@@H](C(=O)O)NC(=O)[C@H](CC(=O)O)NC(=O)[C@@H]2CCCN2C(=O)[C@H](CCCNC(=N)N)NC(=O)[C@H](CCC(N)=O)NC(=O)[C@H](Cc2c[nH]cn2)NC(=O)[C@H](Cc2c[nH]cn2)NC(=O)[C@H](Cc2ccccc2)NC(=O)[C@H](Cc2ccccc2)NC(=O)[C@H](Cc2c[nH]cn2)NC1=O [Peptide 31]	
